Test results reported in paper PMC6010013, “Synthesis, physiochemical property and antimicrobial activity of novel quaternary ammonium salts” (Journal of Enzyme Inhibition and Medicinal Chemistry, 2017).

Experiments:
Type in all cases: cell-based
Aspergillus niger = assay: MIC, broth tube dilution; details: 28 ℃; for MIC: 72 h, read-out: Minimal inhibitory concentration (MIC)
From the text: (§1) In this paper, antimicrobial activities of 24 QASs were detected by quantitative tests. […] Benzalkonium chloride (BZK) and chlorhexidine acetate (CA) was selected as positive controls. Representative compound POT-C12QAS (2) which synthesised and evaluated in previous work was also taken as a reference compound in MIC, MBC and cytotoxicity tests. […]
(§2) agriculture were used as target pathogens in this study, including three strains of Gram-positive bacteria (S. Aureus, α-H-tococcus, β-H-tococcus), three strains of Gram-negative bacteria (E. coli, P. aeruginosa, Proteus vulgaris) and four strains of fungi (Canidia albicans, Cytospora mandshurica, Physalospora piricola, Aspergillus niger). The antimicrobial tests were assayed, according to standard CLSI methods for antimicrobial dilution susceptibility tests to measure the minimum inhibitory concentration (MIC) and minimum bactericidal concentration (MBC)2.
(§3) A broth tube dilution method was followed to determine the MIC values for all the screened compounds against the micro-organisms, and for comparison benzalkonium chloride (BZK) and chlorhexidine acetate (CA) was used as a reference. For sample preparation, each of the test compounds and reference were dissolved in DMSO or sterile water at a concentration of 1600 μg/mL, and further dilutions of the compounds and reference in culture medium MHB (Muller-Hinton Broth) were prepared at the required quantities of 400, 200, 100 etc., down to 0.39 μg/mL. Bacterial strains and fungal strains were maintained on MHA (Muller-Hinton Agar) medium at 37℃ or 28 ℃ for 12 h or 72h, respectively. The microbial inocula were prepared by suspension in 10 mL of culture medium for colonies from culture on MHA. The cell density of each inoculum was adjusted in culture medium of a 0.5 McFarland standard (1-2×10^8 CFU/mL). The final amount applied was 10^5 CFU/mL for bacteria and fungi. The microbial inocula were added to the twofold diluted samples. One growth control tube was prepared […] the addition of the compound and one blank tube was prepared without the addition of the microorganism. MIC values were read after incubation at 37℃ or 28 ℃ for bacterial and fungal strains, respectively. After 12 h or 72h, the last tube with no growth of micro-organisms was recorded to represent the MIC value expressed in μg/ml. All experiments were carried out three times. […]

Canidia albicans = assay: MIC, broth tube dilution; details: 28 ℃; for MIC: 72 h, read-out: Minimal inhibitory concentration (MIC)
From the text: as §1, §2, §3

Cytospora mandshurica = assay: MIC, broth tube dilution; details: 28 ℃; for MIC: Cytospora, 72 h, read-out: Minimal inhibitory concentration (MIC)
From the text: as §1, §2, §3

E. coli = assay: MIC, broth tube dilution; details: 12 h, 37℃; for MIC: Escherichia coli, read-out: Minimal inhibitory concentration (MIC)
From the text: as §1, §2, §3

P. aeruginosa = assay: MIC, broth tube dilution; details: 12 h, 37℃; for MIC: Pseudomonas aeruginosa, read-out: Minimal inhibitory concentration (MIC)
From the text: as §1, §2, §3

Physalospora piricola = assay: MIC, broth tube dilution; details: 28 ℃; for MIC: 72 h, read-out: Minimal inhibitory concentration (MIC)
From the text: as §1, §2, §3

Proteus vulgaris = assay: MIC, broth tube dilution; details: 12 h, 37℃; for MIC: read-out: Minimal inhibitory concentration (MIC)
From the text: as §1, §2, §3

S. aureus = assay: MIC, broth tube dilution; details: 12 h, 37℃; for MIC: Staphylococcus aureus, read-out: Minimal inhibitory concentration (MIC)
From the text: as §1, §2, §3

α-H-tococcus = assay: MIC, broth tube dilution; details: 12 h, 37℃; for MIC: read-out: Minimal inhibitory concentration (MIC)
From the text: as §1, §2, §3

β-H-tococcus [1] = assay: MIC, broth tube dilution; details: 12 h, 37℃; for MIC: read-out: Minimal inhibitory concentration (MIC)
From the text: as §1, §2, §3

β-H-tococcus [2] = assay: MBC, agar plating of dilutions without growth; details: 99.9% bactericidal; for MBC: read-out: Minimal bactericidal concentration (MBC)
From the text: as §1, §2
as §3, with “respectively.” for “respectively. After 12 h or 72h, the last tube with no growth of micro-organisms was recorded to represent the MIC value expressed in μg/ml. All experiments were carried out three times.”
was placed on agar plates in triplicate, and incubated at 37℃ or 28 ℃ for 12 h or 72h. The number of colonies on each plate was read, and the MBC was determined as the lowest concentration that achieved a 99.9% bactericidal in the agar plate.

Haemolysis assay = details: human red blood cells (erythrocyte suspension), 1 h at 37 ℃, read-out: Haemolysis rate; for hemolysis at 1 h, 12.5 μg/mL: 12.50 μg/mL
Experimental: The surfactant may be absorbed and penetrate to the cell membrane, where it makes osmotic phenomena by altering the permeability of membrane, which in turn causes the cellular lysis. Haemolysis assay gives quantitative estimation about haemoglobin release when red blood cells are treated with QASs. Haemolytic assay of QASs at different concentration was carried out in Table 4. […] For 5a-b, 6a-b, 10a-c, 13a-b, and 16a-d, their safe concentration can more than 100 μg/mL. Compared with BZK and CA, all QASs were safe to be used when they circulated into the blood in low concentration. […]
The human blood from healthy individual was collected in a tube containing heparin, and the blood was centrifuged at 1500 rpm for 3 min. The […] (Erythrocyte) was collected and plasma was discarded and further washed five times with sterile normal saline solution. Then the cells were diluted to 0.2% of their volume with normal saline solution. 2 mL of the diluted red blood cells suspension was mixed with (a) 2 mL of normal salinesolution as a negative control; (b) 2 mL of distilled water as a positive control; (c) 2 mL of QAS solution which were dispersed into normal saline solution at the different concentrations ranging from 3.125 to 400 μg/mL. Then the mixtures were shaken well and incubated for 1 h at 37 ℃. Finally, the mixtures were centrifuged for 5min at 2000 r/min and the absorbances of supernatant at 540 nm was measured by a microplate reader (Multiskan MK3-Thermo Labsystems, USA). The hemolysis ratio was calculated as follows: The hemolysis ratio(%) = (OD Sample−OD Negative)/(OD Positive −OD Negative) ×100%. The hemolysis evaluation of QASs was performed in triplicate and results were expressed as the mean ± SD.

Compound | MIC (Aspergillus niger) [mg/L] | MIC (Canidia albicans) [mg/L] | MIC (Cytospora mandshurica) [mg/L] | MIC (E. coli) [mg/L] | MIC (P. aeruginosa) [mg/L] | MIC (Physalospora piricola) [mg/L] | MIC (Proteus vulgaris) [mg/L] | MIC (S. aureus) [mg/L] | MIC (α-H-tococcus) [mg/L] | MIC (β-H-tococcus [1]) [mg/L] | MBC (β-H-tococcus [2]) [mg/L] | hemolysis at 1 h, 6.25 μg/mL (Haemolysis assay) [%] | hemolysis at 1 h, 12.5 μg/mL (Haemolysis assay) [%] | hemolysis at 1 h, 25 μg/mL (Haemolysis assay) [%] | hemolysis at 1 h, 50 μg/mL (Haemolysis assay) [%] | hemolysis at 1 h, 100 μg/mL (Haemolysis assay) [%] | hemolysis at 1 h, 200 μg/mL (Haemolysis assay) [%] | hemolysis at 1 h, 400 μg/mL (Haemolysis assay) [%] | other results
C[N+](CCO)(CCO)CCCCCCCCCCCCSc1nc2ccccc2s1 [Compound 13d] | ~3.12 | ~6.25 | ~1.56 | ~25 | ~25 | ~3.12 | ~25 | ~6.25 | ~12.5 | ~1.56 | ~3.12 | 0.56 ± 0.13 | 1.5 ± 0.72 | 3.98 ± 1.03 | 11.2 ± 2.86 | 48.6 ± 3.54 | 65.2 ± 3.91 | 83.7 ± 4.12 | –
C[N+](CCO)(CCO)CCCCCCSc1nnc(-c2ccc(F)cc2)o1 [Compound 5a] | 50 | 50 | 50 | 100 | 100 | 12.5 | 100 | 100 | 50 | 25 | 25 | 0.21 ± 0.03 | 0.53 ± 0.15 | 1.37 ± 0.87 | 1.54 ± 0.96 | 3.25 ± 1.23 | 6.21 ± 3.21 | 35.6 ± 4.87 | –
C[N+](CCO)(CCO)CCCCCCCCCCSc1nnc(-c2ccc(F)cc2)o1 [Compound 5c] | 25 | 25 | 12.5 | 25 | 50 | 3.12 | 50 | 25 | 12.5 | 6.25 | 12.5 | 0.43 ± 0.16 | 0.75 ± 0.19 | 2.31 ± 0.67 | 4.89 ± 0.53 | 33.1 ± 4.87 | 52.3 ± 6.34 | 67.2 ± 5.89 | –
[H]/N=C(\N/C(=N/[H])NCCCCCCNC(=N)NC(=N)Nc1ccc(Cl)cc1)Nc1ccc(Cl)cc1 [CA, chlorhexidine acetate, reference compound] | 3.12 | 12.5 | 6.25 | 6.25 | 25 | 1.56 | 12.5 | 3.12 | 6.25 | 1.56 | 3.12 | 0.86 ± 0.28 | 2.51 ± 0.87 | 5.29 ± 1.22 | 37 ± 3.78 | 62.2 ± 3.53 | 86 ± 3.82 | 95.7 ± 3.54 | –
C[N+](CCO)(CCO)CCCCCCCCCCCCSc1nnc(-c2ccc(C(F)(F)F)cc2)o1.[Br-] [Compound 6d] | 6.25 | 12.5 | 6.25 | 25 | 50 | 1.56 | 25 | 6.25 | 6.25 | 3.12 | 3.12 | 0.64 ± 0.19 | 1.05 ± 0.28 | 2.02 ± 3.45 | 4.85 ± 4.65 | 36.4 ± 6.35 | 85.6 ± 4.86 | 92.5 ± 3.87 | –
Benzalkonium chloride [BZK, reference compound] | – | – | – | – | – | – | – | – | – | – | – | – | – | – | – | – | – | – | Minimal inhibitory concentration (MIC) (Aspergillus niger; 72h): 3.125 mg/L; Minimal inhibitory concentration (MIC) (Canidia albicans; 72h): 12.5 mg/L; Minimal inhibitory concentration (MIC) (Cytospora mandshurica; 72h): 6.25 mg/L; Minimal inhibitory concentration (MIC) (E. coli): 25 mg/L; Minimal inhibitory concentration (MIC) (P. aeruginosa): 25 mg/L; Minimal inhibitory concentration (MIC) (Physalospora piricola; 72h): 3.125 mg/L; Minimal inhibitory concentration (MIC) (Proteus vulgaris): 25 mg/L; Minimal inhibitory concentration (MIC) (S. aureus): 3.125 mg/L; Minimal inhibitory concentration (MIC) (α-H-tococcus): 3.125 mg/L; Minimal inhibitory concentration (MIC) (β-H-tococcus [1]): 1.56 mg/L; Minimal bactericidal concentration (MBC) (β-H-tococcus [2]): 1.56 mg/L
C[N+](CCO)(CCO)CCCCCCCCCCCCSc1nnc(-c2ccc(F)cc2)o1 [Compound 5d] | 25 | 12.5 | 12.5 | ~25 | ~50 | 3.12 | ~25 | ~12.5 | ~12.5 | ~6.25 | 6.25 | 0.49 ± 0.12 | 0.87 ± 0.27 | 2.43 ± 0.82 | 4.81 ± 0.74 | 32.4 ± 6.78 | 66.7 ± 5.21 | 66.9 ± 4.12 | –
C[N+](CCO)(CCO)CCCCCCSc1nnc(-c2ccc(C(F)(F)F)cc2)o1 [Compound 6a] | 25 | 50 | 12.5 | 50 | 100 | 6.25 | 100 | 50 | 50 | 25 | 25 | 0.15 ± 0.08 | 0.35 ± 0.17 | 0.51 ± 0.19 | 0.99 ± 0.12 | 3.38 ± 1.23 | 7.09 ± 2.89 | 41 ± 5.32 | –
